{
  "source": "patent US9102967B2",
  "about": "“PmST2 enzyme for chemoenzymatic synthesis of α-2-3-sialylglycolipids” (priority 2012, dated 2015)",
  "key": {"MBP-PmST2-His6 [1]": {"molecular_target": "T1, MBP-PmST2-His6 (Pasteurella multocida, UniProt Q9CNC4, M25T)", "T1 construct": "used to clone of the full-length MBP-PmST2-His6 fusion protein in pMa1-c4X vector; made in house; host or cells: E. coli BL21(DE3)", "assay": "Acceptor substrate specificity studies (CE analysis)", "assay_type": "biochemical", "conditions": "for % product formation: acceptor 2 mM, CMP-Neu5Ac 4 mM, 10 min, 37° C., pH 8.0, 0.4% Triton X-100; for % Relative: relative to LacβPro-triazole-C14 = 100", "experimental": "Enzymatic Reactions. All reactions were carried out in duplicate for 10 min at 37° C. in a total volume of 10 μl in Tris-HCl (200 mM, pH 8.0) containing an acceptor substrate (2 mM), CMP-Neu5Ac (4 mM), 0.4% Triton X-100, and enzyme (3.6 μg μl^−1). Addition of 15 μl of cold 95% ethanol was used to terminate each reaction. All reactions were incubated on ice for 10 min and were then centrifuged for 5 min at 13,000 rpm. The supernatant was transferred to a new vial for CE analysis."}, "MBP-PmST2-His6 [2]": {"molecular_target": "T1, MBP-PmST2-His6", "assay_type": "biochemical", "conditions": "MnCl2/MgCl2 1, 5, 10 or 20 mM; EDTA or 2-ME 1 or 10 mM; acceptor LacβPro-triazole-C14", "experimental": "Reactions were carried out in duplicate at 37° C. for 15 min in a total volume of 15 μl in a Tris-HCl buffer (200 mM, pH 8.0) containing LacβPro-triazole-C14 (2 mM), CMP-Neu5Ac (8 mM), 0.3% Triton X-100, and the enzyme (2.4 μg μl^−1). For metal effects, various concentrations (1, 5, 10, or 20 mM) of MgCl2 or MnCl2 were added and ethylenediaminetetraacetic acid (EDTA as chelating agent was used at two concentrations (1 or 10 mM). A reducing reagent 2-mercaptoethanol (2-ME) was used at two concentrations (1 or 10 mM). Reaction without metal ions, EDTA, or 2-ME was used as a control. All reactions were stopped by adding 15 μl of pre-chilled 95% ethanol and the reaction mixtures were kept on ice. The samples were centrifuged at 13,000 rpm for 5 min before the supernatants were analyzed by CE as described above."}, "PmST1 [3]": {"molecular_target": "T2, PmST1 (Pasteurella multocida, UniProt Q15KI8)", "T2 sequence (Q15KI8 entry or part of it)": "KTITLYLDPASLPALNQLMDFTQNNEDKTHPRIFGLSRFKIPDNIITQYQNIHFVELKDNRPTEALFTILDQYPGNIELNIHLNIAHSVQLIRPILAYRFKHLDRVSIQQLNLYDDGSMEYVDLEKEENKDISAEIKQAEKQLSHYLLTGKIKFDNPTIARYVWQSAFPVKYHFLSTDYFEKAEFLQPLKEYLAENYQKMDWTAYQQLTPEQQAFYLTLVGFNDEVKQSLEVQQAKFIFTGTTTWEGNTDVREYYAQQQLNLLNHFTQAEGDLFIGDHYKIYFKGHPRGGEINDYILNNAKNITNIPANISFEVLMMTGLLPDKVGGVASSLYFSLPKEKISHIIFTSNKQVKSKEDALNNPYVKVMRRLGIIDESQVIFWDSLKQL", "conditions": "cited from earlier work"}, "[4]": {"test_system": "N. meningitidis (MC58 and 406Y) Lst", "conditions": "previous report; cited from earlier work"}, "MBP-PmST2-His6 [5]": {"molecular_target": "T1, MBP-PmST2-His6", "assay_type": "biochemical", "conditions": "for Km / kcat / Vmax: apparent, 37° C.; for Km: Tris-HCl pH 8.0, 0.3% Triton X-100, varied substrate, other fixed (LacβPro-triazole-C14 2.0 mM or CMP-Neu5Ac 4.0 mM); for kcat: pH 8.0; for Vmax: pH 8.0, enzyme 14 μM", "experimental": "Reactions were carried out at 37° C. for […] in a total volume of 15 μl in Tris-HCl buffer (200 mM, pH 8.0) containing 2-mercaptoethanol (1 mM), 0.3% Triton X-100, enzyme (14 μM), with varied CMP-Neu5Ac concentrations (0.25, 0.5, 1.0, 2.0, 5.0, and 10.0 mM) and a fixed LacβPro-triazole-C14 (2.0 mM) concentration, or varied LacβPro-triazole-C14 concentrations (0.5, 1.0, 2.0, 5.0, 10.0, and 20.0 mM) or varied LacβPro2AA concentrations (0.5, 1.0, 2.0, 5.0, 10.0, and 25.0 mM) and a fixed CMP-Neu5Ac concentration (4.0 mM). HPLC assays were used for reactions with LacβPro2AA as the sialyltransferase acceptor and CE assays were used for reactions with LacβPro-triazole-C14 as the sialyltransferase acceptor. Apparent kinetic parameters were obtained by fitting the data (the average values of duplicate assay results) into the Michaelis-Menten equation using Grafit 5.0."}, "MBP-PmST2-His6 [6]": {"molecular_target": "T1, MBP-PmST2-His6", "assay": "pH profile of α2-3-sialyltransferase reaction", "assay_type": "biochemical", "conditions": "acceptor 2 mM, 0.3% Triton X-100", "experimental": "Each reaction was carried out in duplicate at 37° C. for 15 min in a buffer (200 mM) with a total volume of 15 μl containing an acceptor (2 mM, LacβPro2AA or LacβPro-triazole-C14), CMP-Neu5Ac (8 mM), 0.3% Triton X-100, and the enzyme MBP-PmST2-His6 (2.4 μg μl^−1). Buffers used were: NaOAc-HOAc (pH 4.0-6.0), Tris-HCl (pH 7.0-9.0), and CHES (pH 10.0). Enzymatic reactions were terminated by adding 15 μl of pre-chilled 95% ethanol. All samples were kept on ice for 10 min and then centrifuged at 13,000 rpm for 5 min. Supernatants were analyzed by HPLC (for LacβPro2AA reaction) or CE (for LacβPro-triazole-C14 reaction) as described above for the time course studies."}, "MBP-PmST2-His6 [7]": {"molecular_target": "T1, MBP-PmST2-His6", "assay": "Time-course study of α-2,3-sialyltransferase activity", "assay_type": "biochemical", "conditions": "acceptor 2 mM, CMP-Neu5Ac 8 mM, 37° C., pH 8.0", "experimental": "(§1) Enzymatic reactions were performed in a total volume of 20 μl (when LacβPro2AA was used as an acceptor) or 40 μl (when LacβPro-triazole-C 14 was used as an acceptor) in a Tris-HCl buffer (200 mM, pH 8.0) containing an acceptor (2 mM of LacβPro2AA or LacβPro-triazole-C14), CMP-Neu5Ac (8 mM), 0.3% Triton X-100, and a sialyltransferase ([…] MBP-PmST2-His6 or PmST1) at 37° C. At different time points (0, 1, 5, 10, 15, 20, 30, and 60 min), 1.5 μl aliquots were taken from the LacβPro2AA reaction and pre-chilled 12% acetonitrile aqueous solution (148.5 μl) was added to each aliquot. Similarly, 3.5 μl aliquots were taken from the LacβPro-triazole-C14 reaction at different time points and pre-chilled 95% ethanol (7 μl) was added to each aliquot. All samples were kept on ice for 10 min and then centrifuged for 5 min at 13,000 rpm. Supernatants from LacβPro2AA reactions were analyzed by a Shimadzu LC-2010A HPLC system equipped with a membrane on-line degasser, a temperature control unit, and a fluorescence detector (the excitation wavelength was set at 315 nm and the emission wavelength was set at 400 nm) using a reverse phase Premier C18 column (250×4.6 mm I.D., 5 μm particle size, Shimadzu) protected with a C18 guard column cartridge. Mobile phase used was 12% acetonitrile in water. Supernatants from LacβPro-triazole-C14 reactions were analyzed by a Beckman P/ACE MDQ capillary electrophoresis (CE) system (60 cm×75 μm i.d.) equipped with a PDA detector (optimal absorption at 214 nm). The running buffer used was sodium borate buffer (50 mM, pH 10.2) containing β-cyclcodextrin (20 mM)."}, "PmST1 [8]": {"molecular_target": "T2, PmST1", "assay": "Time-course study of α-2,3-sialyltransferase activity", "assay_type": "biochemical", "experimental": "as §1"}},
  "data": [
    {"compound": "CCCCCCCCCCCCCCc1cn(CCCOC2OC(CO)C(O)C(OC3OC(CO)C(O)C(O)C3O)C2NC(C)=O)nn1", "note": "(stereo not shown) [Galβ1-3GlcNAcβPro-triazole-C14]", "values": [
      {"measurement": "% product formation", "setting": "MBP-PmST2-His6 [1]", "value": "<4", "unit": "%"},
      {"measurement": "% Relative", "setting": "MBP-PmST2-His6 [1]", "value": "<11", "unit": "%"}
    ]},
    {"compound": "[Cl-].[Cl-].[Mg+2]", "note": "[MgC12, MgCl2]", "values": [
      {"measurement": "effect on α2,3-sialyltransferase activity (in words)", "setting": "MBP-PmST2-His6 [2]", "value": "did not affect the activity significantly"},
      {"measurement": "effect on sialyltransferase activity of PmST1 (in words)", "setting": "PmST1 [3]", "value": "does not stimulate or change the sialyltransferase activity"},
      {"measurement": "stimulation of activity", "setting": "[4]", "value": 2, "unit": "fold"}
    ]},
    {"compound": "[Cl][Mn][Cl]", "note": "[MnC12, MnCl2]", "values": [
      {"measurement": "effect on α2,3-sialyltransferase activity (in words)", "setting": "MBP-PmST2-His6 [2]", "value": "did not affect the activity significantly"},
      {"measurement": "effect on sialyltransferase activity of PmST1 (in words)", "setting": "PmST1 [3]", "value": "activity decreases"},
      {"measurement": "stimulation of activity", "setting": "[4]", "value": 3, "unit": "fold"}
    ]},
    {"compound": "CCCCCCCCCCCCCCc1cn(CCCOC2OC(CO)C(O)C(O)C2O)nn1", "note": "(stereo not shown) [GalβPro-triazole-C14]", "values": [
      {"measurement": "% product formation", "setting": "MBP-PmST2-His6 [1]", "value": "9.2 ± 1.3", "unit": "%"},
      {"measurement": "% Relative", "setting": "MBP-PmST2-His6 [1]", "value": 25.5, "unit": "%"}
    ]},
    {"compound": "Galβ1-3GlcNAcαPro-triazole-C14", "values": [
      {"measurement": "% product formation", "setting": "MBP-PmST2-His6 [1]", "value": "<2", "unit": "%"},
      {"measurement": "% Relative", "setting": "MBP-PmST2-His6 [1]", "value": "<6", "unit": "%"}
    ]},
    {"compound": "Galβ1-4GlcNAcβPro-triazole-C14 [LacNAcβPro-triazole-C14]", "values": [
      {"measurement": "% product formation", "setting": "MBP-PmST2-His6 [1]", "value": "18.5 ± 2.7", "unit": "%"},
      {"measurement": "% Relative", "setting": "MBP-PmST2-His6 [1]", "value": 51.2, "unit": "%"}
    ]},
    {"compound": "cytidine 5′-monophosphate N-acetylneuraminic acid [CMP-Neu5Ac, reference compound]", "values": [
      {"measurement": "Km", "setting": "MBP-PmST2-His6 [5]", "value": "1300 ± 100", "unit": "µM"},
      {"measurement": "kcat", "setting": "MBP-PmST2-His6 [5]", "value": "0.0883 ± 0.0067", "unit": "s⁻¹"},
      {"measurement": "Vmax", "setting": "MBP-PmST2-His6 [5]", "value": "(7.4 ± 0.5) × 10^−2 mM min^−1"}
    ]},
    {"compound": "CCCCCCCCCCCCCCc1cn(CCCO[C@H]2O[C@H](CO)[C@H](O)[C@H](O[C@@H]3O[C@H](CO)[C@H](O)[C@H](O)[C@H]3O)[C@H]2NC(C)=O)nn1", "note": "[Galβ1-3GalNAcαPro-triazole-C14]", "values": [
      {"measurement": "% product formation", "setting": "MBP-PmST2-His6 [1]", "value": "<2", "unit": "%"},
      {"measurement": "% Relative", "setting": "MBP-PmST2-His6 [1]", "value": "<6", "unit": "%"}
    ]},
    {"compound": "O=C(O)CN(CCN(CC(=O)O)CC(=O)O)CC(=O)O", "note": "[EDTA, ethylenediaminetetraacetic acid, reference compound]", "values": [
      {"measurement": "effect on α2,3-sialyltransferase activity (in words)", "setting": "MBP-PmST2-His6 [2]", "value": "did not affect the activity significantly"}
    ]},
    {"compound": "Galβ1-4GlcβPro-triazole-C14 [LacβPro-triazole-C14]", "values": [
      {"measurement": "acceptor substrate for PmST2 (in words)", "setting": "MBP-PmST2-His6 [1]", "value": "best acceptor substrate"},
      {"measurement": "% product formation", "setting": "MBP-PmST2-His6 [1]", "value": "36.1 ± 1.5", "unit": "%"},
      {"measurement": "% Relative", "setting": "MBP-PmST2-His6 [1]", "value": 100, "unit": "%"},
      {"measurement": "optimal pH range with this acceptor", "setting": "MBP-PmST2-His6 [6]", "value": "5.0-8.0"},
      {"measurement": "fold difference in KM values (stronger binding) versus LacβPro2AA", "setting": "MBP-PmST2-His6 [5]", "value": 7, "unit": "fold"},
      {"measurement": "Km", "setting": "MBP-PmST2-His6 [5]", "value": "4100 ± 300", "unit": "µM"},
      {"measurement": "kcat", "setting": "MBP-PmST2-His6 [5]", "value": "0.2 ± 0.017", "unit": "s⁻¹"},
      {"measurement": "Vmax", "setting": "MBP-PmST2-His6 [5]", "value": "(1.7 ± 0.1) × 10^−1 mM min^−1"},
      {"measurement": "fold higher catalytic activity versus LacβPro2AA as acceptor", "setting": "MBP-PmST2-His6 [5]; from differences in KM and kcat", "value": 10, "unit": "fold"},
      {"measurement": "sialylation achieved in 1 hour", "setting": "MBP-PmST2-His6 [7]", "value": 60, "unit": "%"},
      {"measurement": "time at which the sialyltransferase reaction reached optimum", "setting": "PmST1 [8]; acceptor 2 mM, CMP-Neu5Ac 8 mM, 37° C., pH 8.0", "value": 15, "unit": "min"},
      {"measurement": "product formation at optimum", "setting": "PmST1 [8]; at 15 min", "value": "less than 5%"}
    ]},
    {"compound": "OCCS", "note": "[2-mercaptoethanol, reference compound]", "values": [
      {"measurement": "effect on α2,3-sialyltransferase activity (in words)", "setting": "MBP-PmST2-His6 [2]", "value": "did not affect"}
    ]},
    {"compound": "lactosyl ceramide [reference compound]", "values": [
      {"measurement": "acceptor substrate for PmST2 (in words)", "setting": "MBP-PmST2-His6 [1]", "value": "not an acceptor"}
    ]}
  ]
}
